According to ChEMBL document CHEMBL4177694, “Discovery of the first low-shift positive allosteric modulators for the muscarinic M1 receptor” (Bioorg Med Chem Lett, 2017):
Active and inactive are the calls of the source. No cut-off for these calls is given here.

Experiments:
[1] = target: T1, Muscarinic acetylcholine receptor M1 (Homo sapiens) (UniProt P11229); experiment: Antagonist activity at M1 receptor (unknown origin); type: functional
T1 sequence (whole entry): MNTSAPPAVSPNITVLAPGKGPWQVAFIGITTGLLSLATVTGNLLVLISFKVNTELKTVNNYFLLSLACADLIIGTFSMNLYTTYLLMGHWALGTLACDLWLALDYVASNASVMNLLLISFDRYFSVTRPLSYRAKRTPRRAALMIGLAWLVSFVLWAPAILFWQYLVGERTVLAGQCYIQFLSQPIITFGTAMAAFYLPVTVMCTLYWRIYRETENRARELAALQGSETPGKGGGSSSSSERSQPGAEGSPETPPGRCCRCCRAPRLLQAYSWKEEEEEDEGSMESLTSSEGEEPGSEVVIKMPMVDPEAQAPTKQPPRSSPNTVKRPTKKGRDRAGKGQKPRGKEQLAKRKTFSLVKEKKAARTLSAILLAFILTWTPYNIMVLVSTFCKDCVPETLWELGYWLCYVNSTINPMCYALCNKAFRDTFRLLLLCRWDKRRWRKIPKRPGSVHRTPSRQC

[2] = target: T1, Muscarinic acetylcholine receptor M1 (Homo sapiens); experiment: Positive allosteric modulation of human wild type M1 receptor assessed as increase in acetylcholine-induced calcium flux by FLIPR assay relative to acetylcholine; type: functional
[3] = target: Muscarinic acetylcholine receptor M3 (Homo sapiens) (UniProt P20309); experiment: Agonist activity at M3 receptor (unknown origin) up to 10 uM; type: functional
Muscarinic acetylcholine receptor M3 (Homo sapiens), sequence (P20309 whole entry, looked up): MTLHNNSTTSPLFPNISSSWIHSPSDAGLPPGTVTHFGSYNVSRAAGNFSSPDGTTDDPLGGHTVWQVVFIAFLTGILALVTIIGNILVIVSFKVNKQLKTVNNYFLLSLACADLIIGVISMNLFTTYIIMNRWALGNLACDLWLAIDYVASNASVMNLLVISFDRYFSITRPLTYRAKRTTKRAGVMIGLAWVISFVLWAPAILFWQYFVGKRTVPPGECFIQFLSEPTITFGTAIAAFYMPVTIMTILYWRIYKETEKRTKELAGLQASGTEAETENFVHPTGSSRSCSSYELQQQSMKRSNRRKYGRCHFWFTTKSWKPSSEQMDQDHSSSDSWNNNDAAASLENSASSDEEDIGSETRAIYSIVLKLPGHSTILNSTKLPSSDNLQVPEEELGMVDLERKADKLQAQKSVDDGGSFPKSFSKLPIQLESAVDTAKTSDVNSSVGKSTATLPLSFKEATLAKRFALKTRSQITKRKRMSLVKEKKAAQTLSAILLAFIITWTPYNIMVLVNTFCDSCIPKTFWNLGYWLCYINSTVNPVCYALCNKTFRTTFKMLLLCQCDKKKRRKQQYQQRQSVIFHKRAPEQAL

[4] = target: Muscarinic acetylcholine receptor M4 (Homo sapiens) (UniProt P08173); experiment: Agonist activity at M4 receptor (unknown origin) up to 10 uM; type: functional
Muscarinic acetylcholine receptor M4 (Homo sapiens), sequence (P08173 whole entry): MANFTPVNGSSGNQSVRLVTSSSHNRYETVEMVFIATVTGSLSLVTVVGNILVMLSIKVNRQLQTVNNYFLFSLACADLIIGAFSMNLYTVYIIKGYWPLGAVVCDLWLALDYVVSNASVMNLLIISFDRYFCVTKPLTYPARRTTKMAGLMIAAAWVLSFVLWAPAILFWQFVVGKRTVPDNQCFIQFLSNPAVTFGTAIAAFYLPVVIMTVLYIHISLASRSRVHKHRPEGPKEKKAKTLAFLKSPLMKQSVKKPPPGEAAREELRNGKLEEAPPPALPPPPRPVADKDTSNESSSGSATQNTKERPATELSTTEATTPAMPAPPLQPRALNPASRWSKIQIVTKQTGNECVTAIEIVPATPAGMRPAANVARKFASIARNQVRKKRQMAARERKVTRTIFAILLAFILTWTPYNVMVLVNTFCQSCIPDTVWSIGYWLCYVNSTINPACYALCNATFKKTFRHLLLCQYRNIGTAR

[5] = target: Muscarinic acetylcholine receptor M5 (Homo sapiens) (UniProt P08912); experiment: Positive allosteric modulation of M5 receptor (unknown origin) relative to control; type: functional
Muscarinic acetylcholine receptor M5 (Homo sapiens), sequence (P08912 whole entry): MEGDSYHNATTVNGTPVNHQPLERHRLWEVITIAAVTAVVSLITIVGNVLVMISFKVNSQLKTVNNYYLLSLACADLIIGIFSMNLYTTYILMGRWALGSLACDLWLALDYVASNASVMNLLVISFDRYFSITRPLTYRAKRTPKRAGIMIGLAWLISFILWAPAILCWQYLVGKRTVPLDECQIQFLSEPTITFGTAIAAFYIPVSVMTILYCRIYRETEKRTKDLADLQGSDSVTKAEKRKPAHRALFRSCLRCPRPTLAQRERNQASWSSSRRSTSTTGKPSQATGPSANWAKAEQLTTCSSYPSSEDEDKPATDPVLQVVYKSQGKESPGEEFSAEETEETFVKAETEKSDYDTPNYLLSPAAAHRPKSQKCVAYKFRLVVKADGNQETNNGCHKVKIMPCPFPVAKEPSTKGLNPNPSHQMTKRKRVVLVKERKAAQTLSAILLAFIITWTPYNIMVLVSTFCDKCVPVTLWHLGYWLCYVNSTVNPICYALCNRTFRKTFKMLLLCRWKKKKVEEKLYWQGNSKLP

[6] = target: Muscarinic acetylcholine receptor M1 (Rattus norvegicus) (UniProt P08482); experiment: Positive allosteric modulation of rat M1 receptor assessed as increase in acetylcholine-induced calcium flux by FLIPR assay relative to acetylcholine; type: functional
Muscarinic acetylcholine receptor M1 (Rattus norvegicus), sequence (P08482 whole entry): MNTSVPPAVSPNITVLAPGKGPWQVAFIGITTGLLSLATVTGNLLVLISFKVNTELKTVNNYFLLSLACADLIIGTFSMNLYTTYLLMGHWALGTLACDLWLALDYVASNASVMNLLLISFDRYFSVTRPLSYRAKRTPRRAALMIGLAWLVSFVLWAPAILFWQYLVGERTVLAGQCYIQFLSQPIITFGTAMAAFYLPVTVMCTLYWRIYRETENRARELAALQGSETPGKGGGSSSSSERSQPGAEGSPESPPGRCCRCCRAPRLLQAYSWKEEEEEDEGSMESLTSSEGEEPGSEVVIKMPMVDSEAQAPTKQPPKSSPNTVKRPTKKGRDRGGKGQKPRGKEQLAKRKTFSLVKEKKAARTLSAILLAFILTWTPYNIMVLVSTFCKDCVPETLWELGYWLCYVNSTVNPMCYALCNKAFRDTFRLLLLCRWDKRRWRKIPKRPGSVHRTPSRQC

[7] = target: Muscarinic acetylcholine receptor M2 (Homo sapiens) (UniProt P08172); experiment: Positive allosteric modulation of M2 receptor (unknown origin); type: functional
Muscarinic acetylcholine receptor M2 (Homo sapiens), sequence (P08172 whole entry): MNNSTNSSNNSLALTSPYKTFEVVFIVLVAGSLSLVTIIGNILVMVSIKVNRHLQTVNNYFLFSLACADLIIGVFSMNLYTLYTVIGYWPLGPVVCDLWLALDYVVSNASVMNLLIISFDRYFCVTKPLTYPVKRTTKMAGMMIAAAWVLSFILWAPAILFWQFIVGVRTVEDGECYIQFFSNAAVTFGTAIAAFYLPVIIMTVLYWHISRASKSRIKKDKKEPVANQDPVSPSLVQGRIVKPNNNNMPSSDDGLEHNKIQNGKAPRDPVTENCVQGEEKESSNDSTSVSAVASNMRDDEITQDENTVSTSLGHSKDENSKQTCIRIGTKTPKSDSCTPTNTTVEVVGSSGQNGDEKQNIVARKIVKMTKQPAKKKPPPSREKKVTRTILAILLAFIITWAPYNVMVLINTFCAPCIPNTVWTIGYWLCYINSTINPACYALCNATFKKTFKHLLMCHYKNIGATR

[8] = target: T1, Muscarinic acetylcholine receptor M1 (Homo sapiens); experiment: Receptor occupancy at M1 receptor (unknown origin) at EC50
[9] = test system: Muscarinic acetylcholine receptor M1 (Homo sapiens), P11229 [Y179A,W400A]; experiment: Positive allosteric modulation of M1 receptor Y179A/W400A mutant (unknown origin) relative to control
Muscarinic acetylcholine receptor M1 (Homo sapiens), P11229 [Y179A,W400A], sequence (P11229 whole entry Y179A/W400A): as the sequence (P08482 whole entry) above, with V5A, Y179A, S254T, S309P, K320R, G337A, W400A, V413I counted along it

[10] = target: T2, Muscarinic acetylcholine receptor M1 (Homo sapiens, UniProt P11229); experiment: Positive allosteric modulation of human wild type M1 receptor assessed as increase in acetylcholine-induced calcium flux by FLIPR assay; type: functional
T2 sequence (P11229 whole entry): T1 sequence (whole entry)

[11] = target: T1, Muscarinic acetylcholine receptor M1 (Homo sapiens); experiment: Agonist activity at M1 receptor (unknown origin) up to 10 uM; type: functional
[12] = target: Muscarinic acetylcholine receptor M2 (Homo sapiens) (UniProt P08172); experiment: Agonist activity at M2 receptor (unknown origin) up to 10 uM; type: functional
[13] = target: Muscarinic acetylcholine receptor M1 (Homo sapiens, UniProt P11229, W400A/Y179A); experiment: Positive allosteric modulation of M1 receptor Y179A/W400A mutant (unknown origin)
Muscarinic acetylcholine receptor M1 (Homo sapiens, UniProt P11229, W400A/Y179A), sequence (P11229 whole entry Y179A/W400A): as the sequence (P08482 whole entry) above, with V5A, Y179A, S254T, S309P, K320R, G337A, W400A, V413I counted along it

[14] = target: Muscarinic acetylcholine receptor M5 (Homo sapiens) (UniProt P08912); experiment: Agonist activity at M5 receptor (unknown origin) up to 10 uM; type: functional
[15] = target: Muscarinic acetylcholine receptor M5 (Homo sapiens, UniProt P08912); experiment: Positive allosteric modulation of M5 receptor (unknown origin); type: functional
Muscarinic acetylcholine receptor M5, sequence (P08912 whole entry): as the sequence (P08912 whole entry) above

[16] = target: Muscarinic acetylcholine receptor M1 (Rattus norvegicus, UniProt P08482); experiment: Positive allosteric modulation of rat M1 receptor assessed as increase in acetylcholine-induced calcium flux by FLIPR assay; type: functional
Muscarinic acetylcholine receptor M1 (Rattus norvegicus, UniProt P08482), sequence (P08482 whole entry): as the sequence (P08482 whole entry) above

`CC(C)[C@@H]1N=C(c2ccccc2F)c2cc(Cl)ccc2NC1=S` was tested, and the Kb [1] was 610 nM, the Emax [2] was 78% and the Activity [3] was “inactive”. For the same compound, the Activity [4] was “inactive”, the Emax [5] was 70% and the Emax [6] was 88%. For the same compound, the Activity [7] was “inactive”, the Occ [8] was 33% and the Emax [9] was 80%. The EC50 [10] was 80 nM, the Activity [11] was “inactive” and the Activity [12] was “inactive”. The EC50 [13] was 178 nM, the Activity [14] was “inactive” and the EC50 [15] was 1300 nM. For the same compound, the EC50 [16] was 218 nM.
